In patent US9346815B2, “5-chloro-2-difluoromethoxyphenyl pyrazolopyrimidine compounds, compositions and methods of use thereof” (Genentech, Inc., priority 2014, dated 2016) one finds Ki and EC50 data, which are given here for 19 compounds.

For test [1], the target named is isolated recombinant JAK1 kinase domain (Homo sapiens (Human), UniProt P23458). Description: JAK1 enzyme assay (Caliper LabChip, peptide phosphorylation). It is filed as biochemical. As to conditions: isolated recombinant JAK1 kinase domain, 25 μM ATP.
isolated recombinant JAK1 kinase domain, sequence (P23458 875-1153): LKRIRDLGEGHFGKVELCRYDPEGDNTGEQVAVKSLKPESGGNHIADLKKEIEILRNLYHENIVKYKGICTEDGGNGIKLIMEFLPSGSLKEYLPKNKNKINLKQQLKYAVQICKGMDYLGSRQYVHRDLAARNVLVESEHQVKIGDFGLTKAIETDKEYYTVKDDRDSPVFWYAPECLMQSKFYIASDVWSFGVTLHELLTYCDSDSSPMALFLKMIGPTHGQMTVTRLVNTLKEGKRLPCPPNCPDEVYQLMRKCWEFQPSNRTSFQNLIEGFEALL
For test [2], the target named is isolated recombinant JAK2 kinase domain (Homo sapiens (Human), UniProt O60674). Briefly: JAK2 enzyme assay (Caliper LabChip, peptide phosphorylation). The test is classed as biochemical. As to conditions: 25 μM ATP.
isolated recombinant JAK2 kinase domain, sequence (O60674 849-1124): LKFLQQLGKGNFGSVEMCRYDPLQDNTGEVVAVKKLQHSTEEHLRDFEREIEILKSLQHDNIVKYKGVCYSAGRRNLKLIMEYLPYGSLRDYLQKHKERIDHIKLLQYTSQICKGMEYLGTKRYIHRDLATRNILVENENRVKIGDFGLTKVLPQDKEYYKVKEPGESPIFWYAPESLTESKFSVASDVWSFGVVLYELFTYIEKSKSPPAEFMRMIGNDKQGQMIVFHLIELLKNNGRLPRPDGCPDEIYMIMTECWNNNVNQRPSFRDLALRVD
Test [3] concerns JAK1-dependent STAT6 phosphorylation downstream of IL-13 stimulation in BEAS-2B human bronchial epithelial cells. Description: JAK1 pathway assay in BEAS-2B cells (IL-13-pSTAT6, MSD). It is filed as cell-based. As to conditions: read-out: IL13-pSTAT6 EC50 (uM)_BEAS-2B. A digest of the protocol: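 BEAS-2B: 1 h, complete growth medium, 100,000 cells/well. TF-1: 30 min, serum-free OptiMEM after overnight GM-CSF starvation, 300,000 cells/well. EC50 reported.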

One may read the Ki as the dissociation constant of the complex between target and ligand, obtained from inhibition or displacement. In general, EC50 refers to the concentration giving half of the maximal effect.

`CN(C)C(=O)CN1CCN(CC2CCN(C(=O)Cn3cc(NC(=O)c4cnn5cccnc45)c(-c4cc(Cl)ccc4OC(F)F)n3)CC2)CC1` [Example 427, N-(3-(5-chloro-2-(difluoromethoxy)phenyl)-1-(2-(4-((4-(2-(dimethylamino)-2-oxoethyl)piperazin-1-yl)methyl)piperidin-1-yl)-2-oxoethyl)-1H-pyrazol-4-yl)pyrazolo[1,5-a]pyrimidine-3-carboxamide]: the values for the Ki in test [1] and in test [2] were 0.42 nM and 1.25 nM, respectively. The EC50 in test [3] was found to be 0.0224 µM.

Turning to `CN(C)C(=O)CN1CCC(CN2CCN(C(=O)Cn3cc(NC(=O)c4cnn5cccnc45)c(-c4cc(Cl)ccc4OC(F)F)n3)CC2)CC1` [Example 428, N-(3-(5-chloro-2-(difluoromethoxy)phenyl)-1-(2-(4-((1-(2-(dimethylamino)-2-oxoethyl)piperidin-4-yl)methyl)piperazin-1-yl)-2-oxoethyl)-1H-pyrazol-4-yl)pyrazolo[1,5-a]pyrimidine-3-carboxamide], the Ki in test [1] is 0.79 nM; in test [2], 2.51 nM. Besides, the EC50 in test [3] was determined as 0.0453 µM.

As to `O=C(Nc1cn(CC(=O)N2CCN(C3CCOCC3)CC2)nc1-c1cc(Cl)ccc1OC(F)F)c1cnn2cccnc12` [Example 429, N-(3-(5-chloro-2-(difluoromethoxy)phenyl)-1-(2-oxo-2-(4-(tetrahydro-2H-pyran-4-yl)piperazin-1-yl)ethyl)-1H-pyrazol-4-yl)pyrazolo[1,5-a]pyrimidine-3-carboxamide], the results for the inhibitory constant (Ki) in test [1] and in test [2] were 0.48 nM and 0.99 nM, respectively. Besides, the EC50 in test [3] turned out to be 0.0074 µM.

For `CN1CCC2CN(C(=O)Cn3cc(NC(=O)c4cnn5cccnc45)c(-c4cc(Cl)ccc4OC(F)F)n3)CC21` (stereo not drawn) [Example 430, N-(3-(5-chloro-2-(difluoromethoxy)phenyl)-1-(2-(1-methyl-hexahydropyrrolo[3,4-b]pyrrol-5(1H)-yl)-2-oxoethyl)-1H-pyrazol-4-yl)pyrazolo[1,5-a]pyrimidine-3-carboxamide], the Ki in test [1] came out at 0.51 nM; in test [2], 0.77 nM. Moreover, the EC50 in test [3] stood at 0.0058 µM.

In the case of `CN(C1CCN(C(=O)Cn2cc(NC(=O)c3cnn4cccnc34)c(-c3cc(Cl)ccc3OC(F)F)n2)CC1)C1(C#N)CC1` [Example 431, N-(3-(5-chloro-2-(difluoromethoxy)phenyl)-1-(2-(4-((1-cyanocyclopropyl)(methyl)amino)piperidin-1-yl)-2-oxoethyl)-1H-pyrazol-4-yl)pyrazolo[1,5-a]pyrimidine-3-carboxamide], the Ki in test [1] is 0.29 nM; in test [2], 0.74 nM. Also, the EC50 in test [3] was found to be 0.0029 µM.

For `CN(CC1OCCO1)C1CCN(C(=O)Cn2cc(NC(=O)c3cnn4cccnc34)c(-c3cc(Cl)ccc3OC(F)F)n2)CC1` [Example 433, N-(1-(2-(4-(((1,3-dioxolan-2-yl)methyl)(methyl)amino)piperidin-1-yl)-2-oxoethyl)-3-(5-chloro-2-(difluoromethoxy)phenyl)-1H-pyrazol-4-yl)pyrazolo[1,5-a]pyrimidine-3-carboxamide], the results for the Ki in test [1] and in test [2] were 0.42 nM and 1.16 nM, respectively. The EC50 in test [3] was found to be 0.036 µM.

Consider `O=C(Nc1cn(CC(=O)N2CCC(N3CCSCC3)CC2)nc1-c1cc(Cl)ccc1OC(F)F)c1cnn2cccnc12` [Example 434, N-(3-(5-chloro-2-(difluoromethoxy)phenyl)-1-(2-oxo-2-(4-thiomorpholinopiperidin-1-yl)ethyl)-1H-pyrazol-4-yl)pyrazolo[1,5-a]pyrimidine-3-carboxamide], for which the Ki in test [1] was 0.31 nM; in test [2] it was 0.67 nM. Moreover, the EC50 in test [3] was 0.0187 µM.

`CN(CC1(CC#N)CC1)C1CCN(C(=O)Cn2cc(NC(=O)c3cnn4cccnc34)c(-c3cc(Cl)ccc3OC(F)F)n2)CC1` [Example 435, N-(3-(5-chloro-2-(difluoromethoxy)phenyl)-1-(2-(4-(((1-(cyanomethyl)cyclopropyl)methyl)(methyl)amino)piperidin-1-yl)-2-oxoethyl)-1H-pyrazol-4-yl)pyrazolo[1,5-a]pyrimidine-3-carboxamide]: the Ki stood at 0.34 nM in test [1] and 0.98 nM in test [2]. Also, the EC50 in test [3] amounted to 0.0074 µM.

Turning to `N#CC1(NC2CCN(C(=O)Cn3cc(NC(=O)c4cnn5cccnc45)c(-c4cc(Cl)ccc4OC(F)F)n3)CC2)CC1` [Example 436, N-(3-(5-chloro-2-(difluoromethoxy)phenyl)-1-(2-(4-(1-cyanocyclo-propylamino)piperidin-1-yl)-2-oxoethyl)-1H-pyrazol-4-yl)pyrazolo[1,5-a]pyrimidine-3-carboxamide], the Ki turned out to be 0.25 nM in test [1] and 0.75 nM in test [2]. Further, the EC50 in test [3] stood at 0.0103 µM.

With `O=C(Nc1cn(CC(=O)N2CCN(C3CCOC3)CC2)nc1-c1cc(Cl)ccc1OC(F)F)c1cnn2cccnc12` (stereo not drawn) [Example 437, N-(3-(5-chloro-2-(difluoromethoxy)phenyl)-1-(2-oxo-2-(4-(tetrahydrofuran-3-yl)piperazin-1-yl)ethyl)-1H-pyrazol-4-yl)pyrazolo[1,5-a]pyrimidine-3-carboxamide], the Ki stood at 0.38 nM in test [1] and 0.88 nM in test [2]. Besides, in test [3], the EC50 was 0.0126 µM.

With `O=C(Nc1cn(CC(=O)N2CC3CCCNC3C2)nc1-c1cc(Cl)ccc1OC(F)F)c1cnn2cccnc12` (stereo not drawn) [Example 439, N-(3-(5-chloro-2-(difluoromethoxy)phenyl)-1-(2-(octahydropyrrolo[3,4-b]pyridin-6-yl)-2-oxoethyl)-1H-pyrazol-4-yl)pyrazolo[1,5-a]pyrimidine-3-carboxamide], the Ki in test [1] was 0.71 nM; in test [2], 0.78 nM. The EC50 in test [3] is 0.0353 µM.

For the compound `CN1CCCC2CN(C(=O)Cn3cc(NC(=O)c4cnn5cccnc45)c(-c4cc(Cl)ccc4OC(F)F)n3)CC21` (stereo not drawn) [Example 440, N-(3-(5-chloro-2-(difluoromethoxy)phenyl)-1-(2-(1-methyl-octahydropyrrolo[3,4-b]pyridin-6-yl)-2-oxoethyl)-1H-pyrazol-4-yl)pyrazolo[1,5-a]pyrimidine-3-carboxamide], the Ki stood at 0.46 nM in test [1] and 0.54 nM in test [2]. For the same compound, the EC50 in test [3] is 0.0068 µM.

As to `O=C(Nc1cn(CC(=O)N2CCC(N3CCCOCC3)CC2)nc1-c1cc(Cl)ccc1OC(F)F)c1cnn2cccnc12` [Example 441, N-(1-(2-(4-(1,4-oxazepan-4-yl)piperidin-1-yl)-2-oxoethyl)-3-(5-chloro-2-(difluoromethoxy)phenyl)-1H-pyrazol-4-yl)pyrazolo[1,5-a]pyrimidine-3-carboxamide], the Ki turned out to be 0.52 nM in test [1] and 1.48 nM in test [2]. For the same compound, the 50% effective concentration (EC50) in test [3] worked out at 0.0084 µM.

For the compound `O=C(Nc1cn(CC(=O)N2C[C@@H]3CCN[C@@H]3C2)nc1-c1cc(Cl)ccc1OC(F)F)c1cnn2cccnc12` [Example 444, N-(3-(5-chloro-2-(difluoromethoxy)phenyl)-1-(2-((3aS,6aS)-hexahydropyrrolo[3,4-b]pyrrol-5(1H)-yl)-2-oxoethyl)-1H-pyrazol-4-yl)pyrazolo[1,5-a]pyrimidine-3-carboxamide], the Ki in test [1] came to 0.76 nM; in test [2] it was 0.89 nM. The EC50 in test [3] is 0.054 µM.

`O=C(Nc1cn(CC(=O)N2CCC(N3CCNCC3=O)CC2)nc1-c1cc(Cl)ccc1OC(F)F)c1cnn2cccnc12` [Example 445, N-(3-(5-chloro-2-(difluoromethoxy)phenyl)-1-(2-oxo-2-(4-(2-oxopiperazin-1-yl)piperidin-1-yl)ethyl)-1H-pyrazol-4-yl)pyrazolo[1,5-a]pyrimidine-3-carboxamide]: the Ki in test [1] stood at 0.35 nM; in test [2], 0.87 nM. For the same compound, in test [3], the EC50 worked out at 0.3 µM.

Turning to `N#CC1CN(C2CCN(C(=O)Cn3cc(NC(=O)c4cnn5cccnc45)c(-c4cc(Cl)ccc4OC(F)F)n3)CC2)C1` [Example 446, N-(3-(5-chloro-2-(difluoromethoxy)phenyl)-1-(2-(4-(3-cyanoazetidin-1-yl)piperidin-1-yl)-2-oxoethyl)-1H-pyrazol-4-yl)pyrazolo[1,5-a]pyrimidine-3-carboxamide], the Ki in test [1] stood at 0.45 nM; in test [2] it was 1.3 nM. Besides, in test [3], the EC50 was found to be 0.0121 µM.

On to `O=C(Nc1cn(CC(=O)N2CCC(N3C[C@@H]4C[C@H]3CO4)CC2)nc1-c1cc(Cl)ccc1OC(F)F)c1cnn2cccnc12` [Example 447, N-(1-(2-(4-((1S,4S)-5-oxa-2-aza-bicyclo[2.2.1]heptan-2-yl)piperidin-1-yl)-2-oxoethyl)-3-(5-chloro-2-(difluoromethoxy)phenyl)-1H-pyrazol-4-yl)pyrazolo[1,5-a]pyrimidine-3-carboxamide], for which the Ki in test [1] was determined as 0.49 nM; in test [2] it was 1.25 nM. Also, the EC50 in test [3] was 0.0161 µM.

With `CN1CCN(C2CCN(C(=O)Cn3cc(NC(=O)c4cnn5cccnc45)c(-c4cc(Cl)ccc4OC(F)F)n3)CC2)C(=O)C1` [Example 448, N-(3-(5-chloro-2-(difluoromethoxy)phenyl)-1-(2-(4-(4-methyl-2-oxopiperazin-1-yl)piperidin-1-yl)-2-oxoethyl)-1H-pyrazol-4-yl)pyrazolo[1,5-a]pyrimidine-3-carboxamide], the Ki in test [1] was 0.36 nM; in test [2] it was 0.88 nM. Further, the EC50 in test [3] came out at 0.0425 µM.

On to `C[C@@H]1COCCN1C1CCN(C(=O)Cn2cc(NC(=O)c3cnn4cccnc34)c(-c3cc(Cl)ccc3OC(F)F)n2)CC1` [Example 449, N-(3-(5-chloro-2-(difluoromethoxy)phenyl)-1-(2-(4-((R)-3-methyl-morpholino)piperidin-1-yl)-2-oxoethyl)-1H-pyrazol-4-yl)pyrazolo[1,5-a]pyrimidine-3-carboxamide], for which the results for the Ki in test [1] and in test [2] were 0.38 nM and 1.1 nM, respectively. Besides, in test [3], the EC50 came out at 0.0136 µM.
